Measurements as given in ChEMBL document CHEMBL3822440, “Semi-synthesis and antiproliferative evaluation of PEGylated pentacyclic triterpenes” (Eur J Med Chem, 2016).

Columns and labels:
[1] = system: HepG2; test: Potency index, ratio of maslinic acid IC50 to compound IC50 for human HepG2 cells; type: functional
[2] = system: B16-F10; test: Potency index, ratio of maslinic acid IC50 to compound IC50 for mouse B16F10 cells; type: functional
[3] = system: HT-29; test: Cytotoxicity against human HT-29 cells assessed as growth inhibition after 72 hrs by MTT assay; type: functional, cell-based; details: HT-29, 72 h
[4] = system: HT-29; test: Potency index, ratio of maslinic acid IC50 to compound IC50 for human HT-29 cells; type: functional
[5] = system: HepG2; test: Cytotoxicity against human HepG2 cells assessed as growth inhibition after 72 hrs by MTT assay; type: functional, cell-based; details: HepG2, 72 h
[6] = Cytotoxicity against mouse B16F10 cells assessed as growth inhibition after 72 hrs by MTT assay; type: functional, cell-based; details: B16-F10, 72 h
[7] = system: HepG2; test: Potency index, ratio of oleanolic acid IC50 to compound IC50 for human HepG2 cells; type: functional
[8] = system: HT-29; test: Potency index, ratio of oleanolic acid IC50 to compound IC50 for human HT-29 cells; type: functional
[9] = system: B16-F10; test: Potency index, ratio of oleanolic acid IC50 to compound IC50 for mouse B16F10 cells; type: functional

## CC1(C)CC[C@]2(C(=O)OCc3ccccc3)CC[C@]3(C)C(=CC[C@@H]4[C@@]5(C)C[C@@H](O)[C@H](O)C(C)(C)[C@@H]5CC[C@]43C)[C@@H]2C1 [BENZYL MASLINATE]
[1]
  Ratio IC50: 5.8
[2]
  Ratio IC50: 1
[3]
  IC50: 15.3 µM
[4]
  Ratio IC50: 2.1
[5]
  IC50: 17 µM
[6]
  IC50: 36.2 µM

## CC1(C)CC[C@]2(C(=O)NCCCOCCOCCOCCCNC(=O)[C@]34CCC(C)(C)C[C@H]3C3=CC[C@@H]5[C@@]6(C)CC[C@H](O)C(C)(C)[C@@H]6CC[C@@]5(C)[C@]3(C)CC4)CC[C@]3(C)C(=CC[C@@H]4[C@@]5(C)CC[C@H](O)C(C)(C)[C@@H]5CC[C@]43C)[C@@H]2C1
[7]
  Ratio IC50: 3.2
[8]
  Ratio IC50: 5
[9]
  Ratio IC50: 0.9
[3]
  IC50: 85.6 µM
[5]
  IC50: 66.7 µM
[6]
  IC50: 123 µM

## CC1(C)CC[C@]2(C(=O)O)CC[C@]3(C)C(=CC[C@@H]4[C@@]5(C)CC[C@H](O)C(C)(C)[C@@H]5CC[C@]43C)[C@@H]2C1 [OLEANOLIC_ACID]
[3]
  IC50: 430 µM
[5]
  IC50: 212 µM

## CC(=O)O[C@H]1CC[C@]2(C)[C@H]3CC=C4[C@@H]5CC(C)(C)CC[C@]5(C(=O)O)CC[C@@]4(C)[C@]3(C)CC[C@H]2C1(C)C [ACETYL OLEANOLIC ACID]
[7]
  Ratio IC50: 2
[8]
  Ratio IC50: 2.9
[9]
  Ratio IC50: 1.6
[3]
  IC50: 148 µM
[5]
  IC50: 104 µM

## CC(=O)O[C@@H]1C[C@]2(C)[C@H]3CC=C4[C@@H]5CC(C)(C)CC[C@]5(C(=O)NCCCOCCOCCOCCCN)CC[C@@]4(C)[C@]3(C)CC[C@H]2C(C)(C)[C@H]1OC(C)=O
[1]
  Ratio IC50: 0.6
[2]
  Ratio IC50: 0.3
[3]
  IC50: 130 µM
[4]
  Ratio IC50: 0.2
[5]
  IC50: 176 µM
[6]
  IC50: 104 µM

## CC(=O)O[C@@H]1C[C@]2(C)[C@H]3CC=C4[C@@H]5CC(C)(C)CC[C@]5(C(=O)NCCCOCCOCCOCCCNC(=O)[C@]56CCC(C)(C)C[C@H]5C5=CC[C@@H]7[C@@]8(C)C[C@@H](OC(C)=O)[C@H](OC(C)=O)C(C)(C)[C@@H]8CC[C@@]7(C)[C@]5(C)CC6)CC[C@@]4(C)[C@]3(C)CC[C@H]2C(C)(C)[C@H]1OC(C)=O
[1]
  Ratio IC50: 0.9
[2]
  Ratio IC50: 0.3
[3]
  IC50: 64.3 µM
[4]
  Ratio IC50: 0.5
[5]
  IC50: 113 µM
[6]
  IC50: 107 µM

## CC(=O)OC1CC[C@]2(C)[C@H]3CC=C4[C@@H]5CC(C)(C)CC[C@]5(C(=O)NCCCOCCOCCOCCCNC(=O)[C@]56CCC(C)(C)C[C@H]5C5=CC[C@@H]7[C@@]8(C)CC[C@H](OC(C)=O)C(C)(C)[C@@H]8CC[C@@]7(C)[C@]5(C)CC6)CC[C@@]4(C)[C@]3(C)CC[C@H]2C1(C)C (single isomer, unassigned)
[7]
  Ratio IC50: 8.7
[8]
  Ratio IC50: 5.2
[9]
  Ratio IC50: 0.9
[3]
  IC50: 83.2 µM
[5]
  IC50: 24.4 µM
[6]
  IC50: 119 µM

## CC(=O)O[C@@H]1C[C@]2(C)[C@H]3CC=C4[C@@H]5CC(C)(C)CC[C@]5(C(=O)O)CC[C@@]4(C)[C@]3(C)CC[C@H]2C(C)(C)[C@H]1OC(C)=O
[1]
  Ratio IC50: 2
[2]
  Ratio IC50: 0.8
[3]
  IC50: 69.1 µM
[4]
  Ratio IC50: 0.5
[5]
  IC50: 50.2 µM

## CC1(C)CC[C@]2(C(=O)NCCCOCCOCCOCCCNC(=O)[C@]34CCC(C)(C)C[C@H]3C3=CC[C@@H]5[C@@]6(C)C[C@@H](O)[C@H](O)C(C)(C)[C@@H]6CC[C@@]5(C)[C@]3(C)CC4)CC[C@]3(C)C(=CC[C@@H]4[C@@]5(C)C[C@@H](O)[C@H](O)C(C)(C)[C@@H]5CC[C@]43C)[C@@H]2C1
[1]
  Ratio IC50: 1
[2]
  Ratio IC50: 0.3
[3]
  IC50: 82.8 µM
[4]
  Ratio IC50: 0.4
[5]
  IC50: 96.7 µM
[6]
  IC50: 118 µM

## COCCOCCOCC(=O)O[C@H]1CC[C@]2(C)[C@H]3CC=C4[C@@H]5CC(C)(C)CC[C@]5(C(=O)OCc5ccccc5)CC[C@@]4(C)[C@]3(C)CC[C@H]2C1(C)C
[7]
  Ratio IC50: 2.5
[8]
  Ratio IC50: 7
[9]
  Ratio IC50: 0.6
[3]
  IC50: 61.6 µM
[5]
  IC50: 84.1 µM
[6]
  IC50: 175 µM

## CC(=O)O[C@H]1CC[C@]2(C)[C@H]3CC=C4[C@@H]5CC(C)(C)CC[C@]5(C(=O)NCCCOCCOCCOCCCN)CC[C@@]4(C)[C@]3(C)CC[C@H]2C1(C)C
[7]
  Ratio IC50: 3.1
[8]
  Ratio IC50: 3.1
[9]
  Ratio IC50: 0.5
[3]
  IC50: 138 µM
[5]
  IC50: 68.7 µM
[6]
  IC50: 201 µM

## CC1(C)CC[C@]2(C(=O)O)CC[C@]3(C)C(=CC[C@@H]4[C@@]5(C)C[C@@H](O)[C@H](O)C(C)(C)[C@@H]5CC[C@]43C)[C@@H]2C1 [MASLINIC ACID]
[3]
  IC50: 32.2 µM
[5]
  IC50: 99.2 µM

## CC1(C)CC[C@]2(C(=O)OCc3ccccc3)CC[C@]3(C)C(=CC[C@@H]4[C@@]5(C)CC[C@H](O)C(C)(C)[C@@H]5CC[C@]43C)[C@@H]2C1
[7]
  Ratio IC50: 5.5
[8]
  Ratio IC50: 6.4
[9]
  Ratio IC50: 2
[3]
  IC50: 67.1 µM
[5]
  IC50: 38.7 µM
